# In patent publication US9750728B2, “Method and pharmaceutical composition for inhibiting PI3K/AKT/mTOR signaling pathway” (TARGETED THERAPEUTICS, LLC, priority 2012, dated 2017):
# “Also recorded” adds a separate entry of the source.
# Legend:
# Format in all cases: cell-based
# [1] = system: AKT phosphorylation (S473); test: Immunoblot analysis of AKT phosphorylation in cancer cells; conditions: for AKT phosphorylation: two days; for AKT phosphorylation (S473): ZPP 400 μM or Y29794 1 μM; for rapamycin-induced increase in phosphorylation of AKT: rapamycin 10 nM plus ZPP 200 μM or Y29794 0.5 μM, 24 hours
# Protocol: 2.2 Immunoblot analysis of gene silencing of PRCP or PREP in cancer cells. Mouse anti-PRCP antibody was purchased from Abcam (Cambridge, Mass., USA). Goat anti-PREP antibody was purchased from R&D Systems (Minneapolis, Minn., USA). Mouse anti-R-actin antibody antibodies was from Santa Cruz Biotechnology (Santa Cruz, Calif., USA). Panc-1 pancreatic cancer cells and MCF7 breast cancer cells were cultured to 80% confluence, cells were rinsed three times with pre-cooled PBS, 500 μl of lysis buffer (150 mmol/L Nacl, 1% Triton-x-100, 50 mmol/l TrispH8.0, 1 mmol/L PMSF, 1 ug/L aprotinin, 1 ug/L leupeptin, 1 ug/L peptain) was added to the cells. Cells were scraped and transferred to a centrifuge tube with a pipette. The lysates were spun in a microcentrifuge at maximal speed for 10 minutes at 4° C. to get rid of the insoluble fraction. Protein concentration was determined by Bradford assay. For immunoprecipitation: 2-5 ug protein-specific antibodies were added to 250-500 ug of lysates in a tube and incubated on an ordital shaker 4° C. for 2-4 hours with moderate shaking, then 20 ul Protein G beads (Santa Cruz Biotechnology (Santa Cruz, Calif., USA.) were added and the mixture was incubated with moderate shaking for another hour. After washing the beads in lysis buffer five times, the immunoprecipitates were boiled in 2× Laemmli sample buffer (50 mmoL/L Tris-HCL (pH8.0), 100 mmoL/L DTT, 2% SDS, 0.1% bromophenol blue, 10% glycerol) for five minutes. The proteins were separated by conventional SDS-polyacrylamide gel electrophoresis (SDS-PAGE) electrophoresis and transferred to Amersham Hybond-P PVDF membrane (GE Company, Pittsburgh, Pa., USA). For immunoblot, the membrane was blocked in 2% BSA in TBST buffer (Tris 1.21 g+NaCl 5.84 g+800 ml H2O adjusted to pH 8.0 with HCl) for one hour and then incubated with primary antibodies in TBST at room temperature (22-25° C.) for 2 hours. After washing three times with TBST, the membrane was incubated with HRP-conjugated secondary antibodies for 0.5 hours at room temperature. After washing the membrane five times with TBST (5 minutes/each), the membrane was incubated with ECL chromogenic reagent (GE Company, Pittsburgh, Pa., USA) for 1-5 minutes. The blots were exposed to films in darkroom for 1-5 minute. The films were developed in an automatic X-OMAT Developer (KODAK, Rochester, N.Y., USA). […] PREP gene silencing (PREP KD) or PRCP gene silencing (PRCP KD) or gene silencing both PRCP and PREP (DKD) in MCF7 cells reduces expression of PREP and/or PRCP proteins compared with control cells (control) (FIGS. 6B & 6C).
# 3.1 Reduction in AKT phosphorylation is examined by immunoblot using rabbit anti-phospho-AKT […] and rabbit anti-pan AKT antibodies purchased from Cell Signaling Technology (Danvers, Mass., USA) in the cells with gene silencing of PRCP and/or PREP or treated with ZPP or Y29794. Reduction in PRCP and/or PREP is shown by Western blot and quantitative PCR described in 2.2.
# PI3K [2] = test: PI3K kinase assay in anti-p85 immunoprecipitates; conditions: Panc-1, 24 hours
# Protocol: (§1) PI3K kinase assay kit (Calbiochem, Bilerica, Mass., USA) was used to measure the IRS-1-associated or p85-associated PI3K kinase activity in cells. The indicated cells were treated with different conditions for 24 hours. The cells were rinsed three times with pre-cooled PBS, lysed in 500 μl of lysis buffer (150 mmol/L Nacl, 1% Triton-x-100, 50 mmol/1 Tris (pH8.0, 1 mmol/L PMSF, 1 μg/L aprotinin, 1 μg/Lleupeptin, 1 μg/L peptain). Cell lysates (500 μg, in triplicate) of were used for anti-IRS-1 or anti-p85 immunoprecipitation. The immunoprecipitates were resuspended in 200 μl assay buffer and mixed with the fluorescence-labeled PI3K substrate BODIPY-TMR-phosphatidylinositol (100 μM) and ATP (37° C.) for 1 hour. The fluorescence intensity was measured with a fluorometer (excitation wavelength of 540 nm, emission wavelength […]). The difference between fluorescence intensity between control immunoprecipitates (no lysates) and lysate immunoprecipitates was used to indicate PI3K kinase activity. IR-1 anti-rabbit antibody and rabbit anti-PI3K p85 antibody were purchased from Millipore Corporation (Billerica, Mass., USA). Panc-1 anti-p85 immunoprecipitates were used for PI3K kinase assay (FIG. 12) and immunoblot analysis (FIG. 12). Rapamycin treatment in control cells increased PI3K kinase activity (P<0.01).
# PI3K [3] = test: PI3K kinase assay in anti-IRS-1 immunoprecipitates; conditions: Panc-1, 24 hours; ZPP 200 μM, Y29794 0.5 μM or rapamycin alone
# Protocol: as §1, with “(P<0.01). […]” for “(P<0.01).”
# [4] = system: mTOR (S2448) phosphorylation; test: Immunoblot analysis of mTOR phosphorylation; conditions: Panc-1; rapamycin, or Y29794 1 μM (FIG. 19D)
# Protocol: Mouse anti-PRCP antibody was purchased from Abcam (Cambridge, Mass., USA). Goat anti-PREP antibody was purchased from R&D Systems (Minneapolis, Minn., USA). Mouse anti-R-actin antibody antibodies was from Santa Cruz Biotechnology (Santa Cruz, Calif., USA). Panc-1 pancreatic cancer cells and MCF7 breast cancer cells were cultured to 80% confluence, cells were rinsed three times with pre-cooled PBS, 500 μl of lysis buffer (150 mmol/L Nacl, 1% Triton-x-100, 50 mmol/l TrispH8.0, 1 mmol/L PMSF, 1 ug/L aprotinin, 1 ug/L leupeptin, 1 ug/L peptain) was added to the cells. Cells were scraped and transferred to a centrifuge tube with a pipette. The lysates were spun in a microcentrifuge at maximal speed for 10 minutes at 4° C. to get rid of the insoluble fraction. Protein concentration was determined by Bradford assay. For immunoprecipitation: 2-5 ug protein-specific antibodies were added to 250-500 ug of lysates in a tube and incubated on an ordital shaker 4° C. for 2-4 hours with moderate shaking, then 20 ul Protein G beads (Santa Cruz Biotechnology (Santa Cruz, Calif., USA.) were added and the mixture was incubated with moderate shaking for another hour. After washing the beads in lysis buffer five times, the immunoprecipitates were boiled in 2× Laemmli sample buffer (50 mmoL/L Tris-HCL (pH8.0), 100 mmoL/L DTT, 2% SDS, 0.1% bromophenol blue, 10% glycerol) for five minutes. The proteins were separated by conventional SDS-polyacrylamide gel electrophoresis (SDS-PAGE) electrophoresis and transferred to Amersham Hybond-P PVDF membrane (GE Company, Pittsburgh, Pa., USA). For immunoblot, the membrane was blocked in 2% BSA in TBST buffer (Tris 1.21 g+NaCl 5.84 g+800 ml H2O adjusted to pH 8.0 with HCl) for one hour and then incubated with primary antibodies in TBST at room temperature (22-25° C.) for 2 hours. After washing three times with TBST, the membrane was incubated with HRP-conjugated secondary antibodies for 0.5 hours at room temperature. […]
# IRS-1 = test: Immunoblot analysis of IRS-1 (protein, phosphorylation, half-life, p85 coimmunoprecipitation)
smiles,measurement,setting,value
"CC(C)c1ccc(C(=O)c2cccs2)c(SCCCCCCCCN(C)C)n1 [Y29794, [2-[8-(dimethylamino)octylsulfanyl]-6-propan-2-ylpyridin-3-yl]-thiophen-2-ylmethanone]",AKT phosphorylation,"[1]; MCF7, Y29794 0.5 μM, vs vehicle (ethanol)",significantly decreased
same,AKT phosphorylation (S473),"[1]; MCF7, vs vehicle (FIG. 8B, 8E legend)",reduced
same,rapamycin-induced increase in phosphorylation of AKT,[1]; MCF7,blocked
same,AKT phosphorylation,"[1]; PK-9, ZPP 200 μM or Y29794 0.5 μM, vs vehicle",significantly decreased
same,AKT phosphorylation (S473),"[1]; PK-9, vs vehicle (FIG. 8A, 8F legend)",reduced
same,AKT phosphorylation,"[1]; Panc-1, ZPP 200 μM or Y29794 0.5 μM, vs vehicle",significantly decreased
same,phosphorylated AKT (S473),"[1]; Panc-1, ZPP 400 μM alone (FIG. 10A legend) or Y29794 0.5 μM alone (FIG. 11A legend)",reduced
same,AKT phosphorylation (S473),"[1]; Panc-1, vs vehicle (FIG. 8C, 8D legend)",reduced
same,rapamycin-induced increase in phosphorylation of AKT,[1]; Panc-1,blocked
same,PI3K kinase activity (p85-associated),"PI3K [2]; ZPP 200 μM, Y29794 0.5 μM or rapamycin alone, vs vehicle",reduced; also recorded: significantly lower
same,rapamycin-induced increase in PI3K kinase activity (p85-associated),PI3K [2]; rapamycin with ZPP 200 μM or Y29794 0.5 μM,blocks; also recorded: inhibited
same,IRS-1-associated PI3K activity,PI3K [3],reduce; also recorded: decreased
same,mTOR (S2448) phosphorylation,[4],without affecting
same,IRS-1 protein,"IRS-1; Capan-1, Y29794 1 μM (FIG. 19A)",reduces
same,IRS-1 protein,"IRS-1; PK-9, Y29794 1 μM (FIG. 19A)",reduces
